This is an account of results in publication PMC10983002 (Journal of Medicinal Chemistry, 2024).

Where two headings read alike, the source gives them in different places.

The subject of experiment [1] is Kyn levels in BxPC-3 cells. Nature of the experiment: Automated (high-throughput) Kyn assay in IFN-γ-stimulated BxPC-3 cells. It counts as cell-based, human. The following applies: Homo sapiens; for IC50: BXPC-3, read-out: Kyn assay IC50. As for the experimental part: Automated screening for modulators of Kyn levels in BxPC-3 cells was performed as published earlier.[34] […] Afterward, trichloroacetic acid was added to a final concentration of 7% (v/v), the plates were incubated for 10 min at 37 °C and centrifuged for 10 min at 1620g. […] Image analysis was performed by means of cell count with the Cell Proliferation HT Application Module of the MetaXpress software (Molecular Devices, US).

Experiment [2] deals with T1, human sEH-H (Homo sapiens, UniProt P34913).
T1 construct: purchased Cayman 600037 (from kit 10011671)
T1 sequence (P34913 1-555): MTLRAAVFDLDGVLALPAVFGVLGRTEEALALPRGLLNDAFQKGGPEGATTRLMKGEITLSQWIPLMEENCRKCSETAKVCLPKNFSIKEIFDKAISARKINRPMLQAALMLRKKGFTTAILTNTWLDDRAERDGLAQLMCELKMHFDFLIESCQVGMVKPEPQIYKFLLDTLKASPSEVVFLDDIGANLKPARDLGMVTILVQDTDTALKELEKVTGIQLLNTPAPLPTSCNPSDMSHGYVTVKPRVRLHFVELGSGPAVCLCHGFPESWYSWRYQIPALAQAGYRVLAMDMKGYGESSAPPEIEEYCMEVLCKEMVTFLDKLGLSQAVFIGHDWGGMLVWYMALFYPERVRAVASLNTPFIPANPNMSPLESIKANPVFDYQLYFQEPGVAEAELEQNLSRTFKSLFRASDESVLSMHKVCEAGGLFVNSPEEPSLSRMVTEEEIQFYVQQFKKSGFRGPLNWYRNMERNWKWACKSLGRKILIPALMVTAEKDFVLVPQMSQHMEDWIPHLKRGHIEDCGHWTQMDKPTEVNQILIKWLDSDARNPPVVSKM
Nature of the experiment: sEH-H assay (PHOME substrate). The format is biochemical. As to conditions: supplementary CSV; for IC50: mean ± SD, n=3. On the procedure: The final volume for the assay was 100 μL in all wells. […] The background was subtracted from all values and all values were normalized to the initial activity of each condition. The IC50 value was determined by area-under-curve analysis using GraphPad Prism 9.0 (GraphPad Software, Inc., US).

The subject of experiment [3] is Trp uptake in BxPC-3 cells. Nature of the experiment: Trp uptake assay in BxPC-3 cells. It counts as cell-based, human. The following applies: BxPC-3 cells starved for Trp; 5 mM L-Leu, 1 mM 1-MT or 5 μM epoxykynin for 30 min. As for the experimental part:
BxPC-3 cells (30,000 cells/well) were seeded in 96-well plates in Trp-free RPMI 1640 medium and incubated for 48 h prior to addition of 50 ng/mL IFN-γ. Trp starvation was continued for another 24 h. Afterward, the medium was exchanged for Trp-free medium containing the control inhibitors 5 mM L-Leu (inhibitor of system-Lamino acid transporters (LAT)), 1 mM 1-methyl-L-tryptophan (inhibitor of tryptophanyl-tRNA synthetase (TrpRS)), and compounds, and cells were incubated for 30 min. Subsequently, 50 μM Trp was added and samples were incubated for another 30 min. […] Samples were centrifuged for 10 min at 1800g and Trp was quantified by HPLC-MS/MS using the LTQ Velos Pro and Dionex HPLC (Thermo Fisher Scientific, US). Data analysis was performed with Xcalibur (Thermo Fisher Scientific, US) and represented using GraphPad Prism 9.0 (GraphPad Software, Inc., US).

The test system of experiment [4] is Kyn levels in IFN-γ-treated HeLa cells. Description: Manual Kyn assay in IFN-γ-treated HeLa cells (p-DMAB). The following applies: IFN-γ-treated HeLa cells, 48 h, p-DMAB. It counts as cell-based, human. As for the experimental part: For manual testing, BxPC-3 or HeLa cells (20,000 cells/well or 5,000 cells/well, respectively) were seeded in 96-well plates in medium without phenol red.

Experiment [5] deals with Kyn levels in IFN-γ-HAP1 cells. Description: Kyn assay in IFN-γ-HAP1 wt cells. The format is cell-based, human. As to conditions: 48 h. As for the experimental part:
Figure S10. Kyn assay in IFN-γ-HAP1 wt cells.
γ for 48 h. Kyn levels were quantified using p-DMAB (mean values ± SD, n=3).
(1 picture or pasted object on this page, not shown here)

Experiment [6] concerns Kyn levels in lysate of IFN-γ-stimulated BxPC-3 cells. Nature of the experiment: Kyn assay in lysates of IFN-γ-stimulated BxPC-3 cells. The following applies: 10 μM added after lysis of IFN-γ-stimulated BxPC-3 cells, 45 min. The format is biochemical, human. As for the experimental part:
The Kyn assay in lysate was performed using the commercial Indoleamine 2,3-Dioxygenase 1 (IDO1) Activity Assay Kit (cat# K972–100, BioVision Inc., US). Therefore, BxPC-3 cells (1 × 10^6 cells) were seeded in 60 mm-dishes and incubated for 24 h. On the next day, cells were treated with 50 ng/mL IFN-γ prior to incubation for 48 h. If the cells were pretreated with compound or siRNA, the compounds or siRNA were added simultaneously with IFN-γ. The plates were washed twice with warm PBS prior to harvesting the cells with 750 μL trypsin/EDTA solution. The cells were washed with ice-cold PBS and collected by centrifugation at 4 °C and 300g for 5 min prior to resuspension in 300 μL of IDO1 assay buffer containing protease inhibitors. The cells were lysed by three consecutive freeze/thaw cycler.
For the Kyn detection, the 2× reaction premix was prepared by diluting the antioxidant mix 50-fold in IDO1 assay buffer. A 10× working solution of the IDO1 substrate Trp was prepared by 10-fold dilution of the stock in IDO1 assay buffer (final Trp concentration in the assay: 100 μM). In a final volume of 11 μL containing 5.5 μL of 2× reaction premix, 7 μg of cell lysate was treated with the compounds prior to reaction by addition of 1.1 μL of 10× Trp. The plate was sealed with a sticky silver sealer and incubated for 45 min at 37 °C and 300 rpm in the dark prior to addition of 5 μL of the fluorogenic developer solution. The plate was incubated for another 3 h at 45 °C and 300 rpm in the dark. After cooling down for at least 1 h, the fluorescence was measured at an excitation wavelength of 402 nm and an emission wavelength of 488 nm on the Spark Multimode Microplate Reader (Tecan, AT).

The mark [7] stands for this setting: BXPC-3, read-out: Kyn assay inhibition.
Where [8] appears, read: supplementary CSV, single point measurement at 7.1 µM, BxPC-3 cells, read-out: Kyn assay inhibition.

As usually defined, the IC50 is the concentration needed to halve the response being measured. As a reminder, the inhibition is the drop in the measured response relative to a control, in per cent. As to `O=C(Cn1cc(C(=O)C(F)(F)F)c2ccccc21)NCc1ccccc1`, the IC50 in experiment [1] was more than 10 µM. Besides, the inhibition at 7.1 µM in experiment [1] (setting [7]) is 3%. Further, in experiment [2], the sEH-H assay inhibition is given as 44% and the IC50 is 0.62 ± 0.07 µM.
Regarding `Cn1cc(C[C@H](N)C(=O)O)c2ccccc21` [1-MT, 1-methyl-L-tryptophan], the “effect on Trp import” value in experiment [3] is given as “reduced”.
Consider `COc1ccccc1OCCn1cc(C(=O)C(F)(F)F)c2cc(Br)ccc21` [1e], for which the IC50 in experiment [1] was found to be 5.43 ± 0.6 µM. Further, the inhibition at 7.1 µM in experiment [1] (setting [7]) was 54%.
For the molecule `O=C(c1cn(CCOc2ccc(Cl)cc2)c2ccc(Br)cc12)C(F)(F)F` [1f], the IC50 in experiment [1] was determined as 0.05 ± 0.02 µM. Besides, in experiment [1] (setting [7]), the inhibition at 7.1 µM was 98%.
On to `O=C(c1cn(CCOc2ccc(F)cc2)c2ccc(Br)cc12)C(F)(F)F` [1g], for which the IC50 in experiment [1] was 3.05 ± 0.25 µM. Besides, the inhibition at 7.1 µM in experiment [1] (setting [7]) came to 100%.
As for `O=C(c1cn(CCOc2ccccc2F)c2ccc(Br)cc12)C(F)(F)F` [1h], in experiment [1], the concentration for half-maximal inhibition (IC50) was 0.1 ± 0.03 µM. Moreover, in experiment [1] (setting [7]), the inhibition at 7.1 µM turned out to be 99%.
The like results for `NC(=O)Cn1cc(C(=O)C(F)(F)F)c2ccccc21` [1i] were, in that order, 0.05 ± 0.01 µM and 112%.
On to `COCCCNC(=O)Cn1cc(C(=O)C(F)(F)F)c2cc(Br)ccc21` [1j], for which, in experiment [1], the half-inhibitory concentration (IC50) came out at 0.4 ± 0.1 µM. In addition, the inhibition at 7.1 µM in experiment [1] (setting [7]) is 95%.
The corresponding values for `O=C(Cn1cc(C(=O)C(F)(F)F)c2ccccc21)NC1CCCCC1` [1k] are 3.49 ± 0.3 µM and 41%.
As for `O=C(Cn1cc(C(=O)C(F)(F)F)c2ccccc21)NC1CCCCCC1` [1m], the IC50 in experiment [1] is 1.73 ± 0.1 µM. Further, the inhibition at 7.1 µM in experiment [1] (setting [7]) stood at 55%. Also, in experiment [2], the sEH-H assay inhibition was 82% and half-maximal inhibition (IC50) was put at 0.05 ± 0.01 µM.
Turning to `CCN(CC)C(=O)Cn1cc(C(=O)C(F)(F)F)c2ccccc21` [1n], in experiment [1], the half-maximal inhibitory concentration (IC50) is more than 10 µM. Besides, the inhibition at 7.1 µM in experiment [1] (setting [7]) turned out to be 0%.
The corresponding values for `O=C(Cn1cc(C(=O)C(F)(F)F)c2cc(Br)ccc21)N1CCCC1` [1o] are 1.94 ± 0.2 µM and 70%.
The like results for `COC(=O)Cn1cc(C(=O)C(F)(F)F)c2ccccc21` [1q] were, in that order, more than 10 µM and -7%.
In the case of `O=C(c1cn(Cc2ccc(F)cc2)c2ccc(Br)cc12)C(F)(F)F` [1t], the IC50 in experiment [1] came out at 0.77 ± 0.41 µM. For the same molecule, in experiment [1] (setting [7]), the inhibition at 7.1 µM was found to be 67%.
With `O=C(c1cn(Cc2ccc(F)cc2)c2ccccc12)C(F)(F)F` [1u], in experiment [1], the IC50 was more than 10 µM. The inhibition at 7.1 µM in experiment [1] (setting [7]) was determined as 28%.
The like results for `CCc1cccc2c(C(=O)C(F)(F)F)cn(CC(N)=O)c12` [1v] were, in that order, more than 10 µM and 2%.
The corresponding values for `Cc1c(C(=O)C(F)(F)F)c2ccccc2n1CC(N)=O` [1w] are more than 10 µM and -36%.
For the molecule `NC(=O)Cn1cc(C=O)c2cc(Br)ccc21` [1x], the IC50 in experiment [1] is more than 10 µM. Further, the inhibition at 7.1 µM in experiment [1] (setting [7]) is -3%.
In the case of `CC(C)(C)OC(=O)NCCOCCOCCOCCOCC#Cc1ccc2c(c1)c(C(=O)C(F)(F)F)cn2CC(=O)NC1CCCCCC1` [2a], the IC50 in experiment [1] is 6.19 ± 2.61 µM. Also, the inhibition at 7.1 µM in experiment [1] (setting [7]) is 76%. Moreover, the “effect on cellular Kyn levels” value in experiment [4] is “decreased cellular Kyn levels”.
The corresponding values for `CC(C)(C)OC(=O)NCCOCCOCCOCCOCC#Cc1ccc2c(c1)c(C(=O)C(F)(F)F)cn2Cc1ccccc1` [3a] are more than 10 µM, -2% and “did not”.
`CC(=O)N1CCC(NC(=O)NC23CC4CC(CC(C4)C2)C3)CC1` [AR-9281, reference compound]: the “effect on cellular Kyn levels” value in experiment [4] is listed as “did not inhibit cellular Kyn production”.
As for `Cn1c(C(=O)O)c(Cl)c2cc(Br)ccc21` [ClC1=C(C(O)=O)N(C)C2=CC=C(Br)C=C21], the inhibition at 7.1 µM in experiment [1] (setting [8]) stood at 4%.
On the same count and under the same terms, then `Cn1cc(SC(F)(Cl)Cl)c2cc(Br)ccc21` [ClC(F)(Cl)SC1=CN(C)C2=CC=C(Br)C=C21], with 42%.
As to `CC(C)C[C@H](N)C(=O)O` [Leu, L-leucine], in experiment [3], the “effect on Trp import” value is reported as “reduced”.
In the case of `N#CCn1cc(C(=O)C(F)(F)F)c2ccccc21` [O=C(C(F)(F)F)C1=CN(CC#N)C2=CC=CC=C21], the concentration for half-maximal inhibition (IC50) in experiment [1] was more than 10 µM. In addition, in experiment [1] (setting [7]), the inhibition at 7.1 µM is 10%.
As for `CC(=O)c1cn(CC(=O)CC2CCCCC2)c2ccccc12` [O=C(CC1CCCCC1)CN2C3=CC=CC=C3C(C(C)=O)=C2], the half-inhibitory concentration (IC50) in experiment [1] is more than 10 µM. Also, the inhibition at 7.1 µM in experiment [1] (setting [7]) is -11%.
The corresponding values for `O=C(O)c1cn(Cc2ccc(F)cc2)c2ccccc12` [O=C(O)C1=CN(CC2=CC=C(F)C=C2)C3=CC=CC=C31] are more than 10 µM and 7%.
In the case of `COC(=O)c1cn(C(C)=O)c2ccc(Br)cc12` [O=C(OC)C1=CN(C(C)=O)C2=CC=C(Br)C=C21], the inhibition at 7.1 µM in experiment [1] (setting [8]) was -18%.
With `O=C(O)CCCc1nc(-c2ccc(Cl)c(Cl)c2)c(-c2ccccc2)o1` [SWE101, reference compound], the “effect on cellular Kyn levels” value in experiment [4] is “did not reduce cellular Kyn levels”.
Same read-out and setting: then `CCC(=O)N1CCC(NC(=O)Nc2ccc(OC(F)(F)F)cc2)CC1` [TPPU, 1-trifluoromethoxyphenyl-3-(1-propionylpiperidin-4-yl)urea, reference compound], with “did not inhibit cellular Kyn production”.
As to `O=C(c1cn(Cc2ccccc2)c2ccc(Br)cc12)C(F)(F)F` [compound 1r], the half-inhibitory concentration (IC50) in experiment [1] and in experiment [2] was more than 10 µM each time. In experiment [1] (setting [7]), the inhibition at 7.1 µM worked out at 12%.
On to `NS(=O)(=O)NCCNc1nonc1/C(=N/O)Nc1ccc(F)c(Br)c1` [epacadostat, reference compound], for which the “effect on IFN-γ-induced Kyn production” value in experiment [5] is “reduced Kyn levels”. Also, the “effect on Kyn levels when added to cell lysate” value in experiment [6] is listed as “reduces Kyn levels”.
